Where “and” joins values, the source holds several entries; their conditions need not be identical. Identical values can stand only once.
Test system: patients with prior myocardial infarction (CARE study)
Test: CARE aligned analysis (prospective and case/control design, white males): association of genotypes with pravastatin efficacy (Tables 13, 15)
Assay type: in vivo, human
Conditions: for Pravastatin Patients n/total: WM
Protocol: The data presented in Table 8 based on an association of genotypes with pravastatin efficacy of the CARE samples were further analyzed and presented in Table 13. The further analysis was performed to align the data obtained from the analysis of the CARE samples, which was a prospective study, to the analysis of the WOSCOP samples, which was a case/control study. Table 13 also presents an analysis of the association of genotypes with pravastatin efficacy in the WOSCOPs samples. Relative to the analysis performed on the data presented in Table 8, there are two significant differences to determine if the SNP influenced pravastatin efficacy. Data obtained from the CARE samples were separated by study design into two groups, those in the prospective study design group and those in the case/control study design group. The original care study contained 16 protocol defined cardiovascular disease defined endpoints and 150 other phenotypes. […] The control groups used to compare the data were also divided into two groups, the “all possible” control group and the “cleaner” control group. […] Because the participants in the WOSCOPs trial were all white males, only data obtained from white males in the CARE study were analysed. Data from the “all possible” and “cleaner” controls were compared to data obtained from the cases in the prospective study design while only data from “cleaner” controls were compared to cases in the case/control study design. The data from the case/control cohorts were analysed using conditional logistic regression (as opposed to logistic regression used for the original anaylsis).
The anaylsis was refined as described for both Tables 13 and 14.

[1] = PRKCQ hCV15954277, CARE, Case/Control, F MI/SD/NF MI
[2] = PRKCQ hCV15954277, CARE, Prospective, F MI/SD/NF MI
[3] = SERPINA5 hCV9596963, CARE Case/Control, F MI/SD/NF MI
[4] = SN hCV25623265, CARE Case/Control, F MI/SD/NF MI
[5] = SN hCV25623265, CARE Prospective, F MI/SD/NF MI
[6] = TAP1 hCV549926, CARE Case/Control, F MI/SD/NF MI
[7] = TAP1 hCV549926, CARE Prospective, F MI/SD/NF MI
[8] = TIMP2 hCV25629888, CARE Case/Control, F MI/SD/NF MI
[9] = TNF hCV7514879, CARE Case/Control, F MI/SD/NF MI
[10] = TNF hCV7514879, CARE Prospective, F MI/SD/NF MI
[11] = VTN hCV2536595, CARE Case/Control, F MI/SD/NF MI
[12] = VTN hCV2536595, CARE Prospective, F MI/SD/NF MI

For `CC[C@H](C)C(=O)O[C@H]1C[C@H](O)C=C2C=C[C@H](C)[C@H](CC[C@@H](O)C[C@@H](O)CC(=O)O)[C@H]21` [pravastatin], the “n/total (%) cases, Pravastatin Patients, 2 Rare Alleles” value (PON1 hCV2548962, 2 rare alleles, CARE Prospective, Total CHD Events, All Possible controls, White Males) was 18/107 (16.8%), the “Pravastatin Patients n/total” value (PPOX hCV25922816, 0 Rare Alleles, CARE Prospective, F&NF MI, Cleaner controls) was 116/721 and the “Pravastatin Patients n/total” value (PPOX hCV25922816, 1 Rare Allele, CARE Case/Control, F&NF MI, All Possible controls) was 10/164. The “Pravastatin Patients n/total” value (PPOX hCV25922816, 1 Rare Allele, CARE Prospective, F&NF MI, All Possible controls) was 10/169, the “Pravastatin Patients n/total” value (PPOX hCV25922816, 1 Rare Allele, CARE Prospective, F&NF MI, Cleaner controls) was 10/113 and the “2 Rare Alleles (%), Pravastatin Patients” value (PPOX hCV25922816, CARE Case/Control, F&NF MI) was “(16.7%)”. The “2 Rare Alleles (%), Pravastatin Patients” value (PPOX hCV25922816, CARE Prospective, F&NF MI) was “(16.7%)”, the “2 rare alleles n/total (%), pravastatin patients” value [1] was “(11.2%)” and the “Pravastatin vs placebo odds ratio, 0 rare alleles” value [1] was 0.58. The “Pravastatin vs placebo odds ratio, 1 rare allele” value [1] was 1.04, the “Pravastatin vs placebo odds ratio, 2 rare alleles” value [1] was 3.15 and the “Pravastatin vs placebo odds ratio, 0 rare alleles” value [2] was 0.57 and 0.56. The “Pravastatin vs placebo odds ratio, 1 rare allele” value [2] was 1.08 and 0.85, the “Pravastatin vs placebo odds ratio, 2 rare alleles” value [2] was 3.38 and 2.80 and the “2 Rare Alleles (%), Pravastatin Patients” value (SELL hCV16172571, CARE Case/Control, F&NF MI) was “(14.3%)”. For the same compound, the “2 Rare Alleles (%), Pravastatin Patients” value (SELL hCV16172571, CARE Prospective, F&NF MI) was “(12.9%)”, the “2 Rare Alleles (%), Pravastatin Patients” value (SELL hCV25474627, CARE Case/Control, F&NF MI) was “(14.8%)” and the “2 Rare Alleles (%), Pravastatin Patients” value (SELL hCV25474627, CARE Prospective, F&NF MI) was “(13.3%)”. The “2 Rare Alleles (%), Pravastatin Patients” value (SERPINA1 hCV25640504, CARE Case/Control, F&NF MI) was “(8.6%)”, the “2 Rare Alleles (%), Pravastatin Patients” value (SERPINA1 hCV25640504, CARE Prospective, F&NF MI) was “(8.4%)” and the “2 Rare Alleles (%), Pravastatin Patients” value [3] was “(15.1%)”. The “2 Rare Alleles n/total, Pravastatin Patients” value [3] was 21/139, the “Pravastatin vs placebo odds ratio, 0 rare alleles” value [3] was 0.89 and the “Pravastatin vs placebo odds ratio, 1 rare allele” value [3] was 0.57. For the same compound, the “Pravastatin vs placebo odds ratio, 2 rare alleles” value [3] was 1.72, the “2 Rare Alleles (%), Pravastatin Patients” value (SERPINI2 hCV370782, CARE Case/Control, F&NF MI) was “(16.2%)” and the “2 Rare Alleles (%), Pravastatin Patients” value (SERPINI2 hCV370782, CARE Prospective, F&NF MI) was “(15.8%)”. The “2 Rare Alleles (%), Pravastatin Patients” value [4] was “(7.5%)”, the “2 Rare Alleles n/total, Pravastatin Patients” value [4] was 13/173 and the “Pravastatin vs placebo odds ratio, 0 rare alleles” value [4] was 0.71. For the same compound, the “Pravastatin vs placebo odds ratio, 1 rare allele” value [4] was 1.02, the “Pravastatin vs placebo odds ratio, 2 rare alleles” value [4] was 0.30 and the “2 Rare Alleles (%), Pravastatin Patients” value [5] was “(7.5%)”. The “2 Rare Alleles n/total, Pravastatin Patients” value [5] was 13/174, the “Pravastatin vs placebo odds ratio, 0 rare alleles” value [5] was 0.72 and the “Pravastatin vs placebo odds ratio, 1 rare allele” value [5] was 0.98. The “Pravastatin vs placebo odds ratio, 2 rare alleles” value [5] was 0.31, the “2 Rare Alleles n/total, Pravastatin Patients” value [6] was 1/36 and 1/25 and the “Pravastatin vs placebo odds ratio, 0 rare alleles” value [6] was 0.98 and 0.89. For the same compound, the “Pravastatin vs placebo odds ratio, 1 rare allele” value [6] was 0.61 and 0.56, the “Pravastatin vs placebo odds ratio, 2 rare alleles” value [6] was 0.08 and the “2 Rare Alleles n/total, Pravastatin Patients” value [7] was 1/36 and 1/25. The “Pravastatin vs placebo odds ratio, 0 rare alleles” value [7] was 1.00 and 0.88, the “Pravastatin vs placebo odds ratio, 1 rare allele” value [7] was 0.60 and 0.55 and the “Pravastatin vs placebo odds ratio, 2 rare alleles” value [7] was 0.09 and 0.08. The “2 Rare Alleles (%), Pravastatin Patients” value [8] was “(29.2%)”, the “2 Rare Alleles n/total, Pravastatin Patients” value [8] was 7/24 and the “Pravastatin vs placebo odds ratio, 0 rare alleles” value [8] was 0.76. The “Pravastatin vs placebo odds ratio, 1 rare allele” value [8] was 0.56, the “Pravastatin vs placebo odds ratio, 2 rare alleles” value [8] was 6.81 and the “2 Rare Alleles (%), Pravastatin Patients” value [9] was “(8.8%)”. The “2 Rare Alleles n/total, Pravastatin Patients” value [9] was 3/34, the “Pravastatin vs placebo odds ratio, 0 rare alleles” value [9] was 0.87 and the “Pravastatin vs placebo odds ratio, 1 rare allele” value [9] was 0.52. For the same compound, the “Pravastatin vs placebo odds ratio, 2 rare alleles” value [9] was 0.14, the “2 Rare Alleles (%), Pravastatin Patients” value (TNF hCV7514879, CARE Case/Control, F&NF MI) was “(8.8%)” and the “2 Rare Alleles (%), Pravastatin Patients” value [10] was “(8.6%)”. The “2 Rare Alleles n/total, Pravastatin Patients” value [10] was 3/35, the “Pravastatin vs placebo odds ratio, 0 rare alleles” value [10] was 0.88 and the “Pravastatin vs placebo odds ratio, 1 rare allele” value [10] was 0.50. The “Pravastatin vs placebo odds ratio, 2 rare alleles” value [10] was 0.12, the “2 Rare Alleles (%), Pravastatin Patients” value (TNF hCV7514879, CARE Prospective, F&NF MI) was “(8.6%)” and the “2 Rare Alleles n/total, Pravastatin Patients” value [11] was 21/260 and 21/168. For the same compound, the “Pravastatin vs placebo odds ratio, 0 rare alleles” value [11] was 1.51 and 1.37, the “Pravastatin vs placebo odds ratio, 1 rare allele” value [11] was 0.63 and 0.56 and the “Pravastatin vs placebo odds ratio, 2 rare alleles” value [11] was 0.66 and 0.64. For the same compound, the “2 Rare Alleles (%), Pravastatin Patients” value [12] was “(7.9%)”, the “2 Rare Alleles n/total, Pravastatin Patients” value [12] was 21/266 and 21/174 and the “Pravastatin vs placebo odds ratio, 0 rare alleles” value [12] was 1.54 and 1.31. For the same compound, the “Pravastatin vs placebo odds ratio, 1 rare allele” value [12] was 0.65 and 0.58 and the “Pravastatin vs placebo odds ratio, 2 rare alleles” value [12] was 0.63 and 0.61.

Source: patent US9932637B2, “Genetic polymorphisms associated with cardiovascular disorders and drug response, methods of detection and uses thereof” (CELERA CORPORATION, priority 2003, dated 2018)
